# Reference: ChEMBL document CHEMBL3272271, “Folate antagonists. 13. 2,4-Diamino-6-](alpha,alpha,alpha-trifluoro-m-tolyl)thio]quinazoline and related 2,4-diamino-6-[(phenyl- and naphthyl)thio]quinazolines, a unique class of antimetabolites with extraordinary antimalarial and antibacterial effects” (J Med Chem, 1978)
# Active and inactive are the calls of the source. No cut-off for these calls is given here.
# System: Enterococcus faecalis
# Experiment: Antibacterial activity against Streptococcus faecalis MGH-2 by gradient plate test
# Assay type: functional
# Conditions: not given
row,Structure (SMILES),MIC [µg/mL]
1,Nc1nc(N)c2cc(Sc3ccc(O)cc3)ccc2n1,< 0.25
2,Nc1nc(N)c2cc(Sc3cccc4ccccc34)ccc2n1,10
3,CC(C)(C)c1ccc(Sc2ccc3nc(N)nc(N)c3c2)cc1,< 0.25

# System: Staphylococcus aureus
# Experiment: Antibacterial activity against Staphylococcus aureus UC-96 by gradient plate test
# Assay type: functional
# Conditions: not given
row,Structure (SMILES),MIC [µg/mL]
1,Nc1nc(N)c2cc(Sc3ccc(O)cc3)ccc2n1,< 0.25
2,Nc1nc(N)c2cc(Sc3cccc4ccccc34)ccc2n1,2.5
3,CC(C)(C)c1ccc(Sc2ccc3nc(N)nc(N)c3c2)cc1,< 0.25

# System: Staphylococcus aureus
# Experiment: Antibacterial activity against drug-resistant Staphylococcus aureus S18713 by gradient plate test
# Assay type: functional
# Conditions: not given
row,Structure (SMILES),MIC [µg/mL]
1,Nc1nc(N)c2cc(Sc3ccc(O)cc3)ccc2n1,< 0.25
2,Nc1nc(N)c2cc(Sc3cccc4ccccc34)ccc2n1,5
3,CC(C)(C)c1ccc(Sc2ccc3nc(N)nc(N)c3c2)cc1,< 0.25

# System: Pseudomonas aeruginosa
# Experiment: Antibacterial activity against Pseudomonas aeruginosa 28 by gradient plate test
# Assay type: functional
# Conditions: not given
row,Structure (SMILES),MIC [µg/mL]
1,Nc1nc(N)c2cc(Sc3ccc(O)cc3)ccc2n1,20
2,Nc1nc(N)c2cc(Sc3cccc4ccccc34)ccc2n1,> 25
3,CC(C)(C)c1ccc(Sc2ccc3nc(N)nc(N)c3c2)cc1,> 25

# System: Escherichia coli
# Experiment: Antibacterial activity against Escherichia coli Vogel by gradient plate test
# Assay type: functional
# Conditions: not given
row,Structure (SMILES),MIC [µg/mL]
1,Nc1nc(N)c2cc(Sc3ccc(O)cc3)ccc2n1,2.5
2,Nc1nc(N)c2cc(Sc3cccc4ccccc34)ccc2n1,15
3,CC(C)(C)c1ccc(Sc2ccc3nc(N)nc(N)c3c2)cc1,10

# System: Shigella sonnei
# Experiment: Antibacterial activity against Shigella sonnei C-10 by gradient plate test
# Assay type: functional
# Conditions: not given
row,Structure (SMILES),MIC [µg/mL]
1,Nc1nc(N)c2cc(Sc3ccc(O)cc3)ccc2n1,15
2,Nc1nc(N)c2cc(Sc3cccc4ccccc34)ccc2n1,20
3,CC(C)(C)c1ccc(Sc2ccc3nc(N)nc(N)c3c2)cc1,15

# System: Mycobacterium tuberculosis
# Experiment: Antibacterial activity against Mycobacterium tuberculosis H37Ra by gradient plate test
# Assay type: functional
# Conditions: not given
row,Structure (SMILES),MIC [µg/mL]
1,Nc1nc(N)c2cc(Sc3ccc(O)cc3)ccc2n1,> 25
2,Nc1nc(N)c2cc(Sc3cccc4ccccc34)ccc2n1,> 25

# System: Plasmodium gallinaceum
# Experiment: Antimalarial activity against sporozoite-induced Plasmodium gallinaceum infected in white leghorn chicken assessed as disease cure from parasite infection at 480 mg/kg, sc administered 72 hrs after infection
# Assay type: functional, organism-based
# Design: dose 480 mg/kg
# Conditions: not given
row,Structure (SMILES),Activity
1,Nc1nc(N)c2cc(Sc3ccc(O)cc3)ccc2n1,Active

# System: Plasmodium gallinaceum
# Experiment: Antimalarial activity against sporozoite-induced Plasmodium gallinaceum infected in white leghorn chicken assessed as disease cure from parasite infection at 240 mg/kg, sc administered 72 hrs after infection
# Assay type: functional, organism-based
# Design: dose 240 mg/kg
# Conditions: not given
row,Structure (SMILES),Activity
1,Nc1nc(N)c2cc(Sc3ccc(O)cc3)ccc2n1,Active

# System: Plasmodium gallinaceum
# Experiment: Antimalarial activity against sporozoite-induced Plasmodium gallinaceum infected in white leghorn chicken assessed as disease cure from parasite infection at 120 mg/kg, sc administered 72 hrs after infection
# Assay type: functional, organism-based
# Design: dose 120 mg/kg
# Conditions: not given
row,Structure (SMILES),Activity
1,Nc1nc(N)c2cc(Sc3ccc(O)cc3)ccc2n1,Active

# System: Plasmodium gallinaceum
# Experiment: Antimalarial activity against sporozoite-induced Plasmodium gallinaceum infected in white leghorn chicken assessed as disease cure from parasite infection at 60 mg/kg, sc administered 72 hrs after infection
# Assay type: functional, organism-based
# Design: dose 60 mg/kg
# Conditions: not given
row,Structure (SMILES),Activity
1,Nc1nc(N)c2cc(Sc3ccc(O)cc3)ccc2n1,Active

# System: Plasmodium gallinaceum
# Experiment: Antimalarial activity against sporozoite-induced Plasmodium gallinaceum infected in white leghorn chicken assessed as disease cure from parasite infection at 30 mg/kg, sc administered 72 hrs after infection
# Assay type: functional, organism-based
# Design: dose 30 mg/kg
# Conditions: not given
row,Structure (SMILES),Activity
1,Nc1nc(N)c2cc(Sc3ccc(O)cc3)ccc2n1,Active

# System: Plasmodium gallinaceum
# Experiment: Antimalarial activity against sporozoite-induced Plasmodium gallinaceum infected in white leghorn chicken assessed as increase in mean survival days of host at 15 mg/kg, sc administered 72 hrs after infection relative to control
# Assay type: functional
# Conditions: route subcutaneous
row,Structure (SMILES),MST [days]
1,Nc1nc(N)c2cc(Sc3ccc(O)cc3)ccc2n1,4.7

# System: Plasmodium gallinaceum
# Experiment: Antimalarial activity against sporozoite-induced Plasmodium gallinaceum infected in white leghorn chicken assessed as disease cure from parasite infection at 15 mg/kg, sc administered 72 hrs after infection
# Assay type: functional, organism-based
# Design: dose 15 mg/kg
# Conditions: not given
row,Structure (SMILES),Activity
1,Nc1nc(N)c2cc(Sc3ccc(O)cc3)ccc2n1,Active

# System: Plasmodium berghei
# Experiment: Antimalarial activity against Plasmodium berghei infected in mouse assessed as increase in mean survival days of host at 320 mg/kg, sc administered 72 hrs after infection relative to control
# Assay type: functional
# Conditions: route subcutaneous
row,Structure (SMILES),MST [days]
1,CC(C)(C)c1ccc(Sc2ccc3nc(N)nc(N)c3c2)cc1,17.9

# System: Plasmodium berghei
# Experiment: Antimalarial activity against Plasmodium berghei infected in mouse assessed as increase in mean survival days of host at 160 mg/kg, sc administered 72 hrs after infection relative to control
# Assay type: functional
# Conditions: route subcutaneous
row,Structure (SMILES),MST [days]
1,Nc1nc(N)c2cc(Sc3ccc(O)cc3)ccc2n1,13.6
2,CC(C)(C)c1ccc(Sc2ccc3nc(N)nc(N)c3c2)cc1,7.8

# System: Plasmodium berghei
# Experiment: Antimalarial activity against Plasmodium berghei infected in mouse assessed as increase in mean survival days of host at 80 mg/kg, sc administered 72 hrs after infection relative to control
# Assay type: functional
# Conditions: route subcutaneous
row,Structure (SMILES),MST [days]
1,Nc1nc(N)c2cc(Sc3ccc(O)cc3)ccc2n1,10.9
2,Nc1nc(N)c2cc(Sc3cccc4ccccc34)ccc2n1,18.4
3,CC(C)(C)c1ccc(Sc2ccc3nc(N)nc(N)c3c2)cc1,6

# System: Plasmodium berghei
# Experiment: Antimalarial activity against Plasmodium berghei infected in mouse assessed as increase in mean survival days of host at 40 mg/kg, sc administered 72 hrs after infection relative to control
# Assay type: functional
# Conditions: route subcutaneous
row,Structure (SMILES),MST [days]
1,Nc1nc(N)c2cc(Sc3ccc(O)cc3)ccc2n1,11.9
2,Nc1nc(N)c2cc(Sc3cccc4ccccc34)ccc2n1,14.5
3,CC(C)(C)c1ccc(Sc2ccc3nc(N)nc(N)c3c2)cc1,2.6

# System: Plasmodium berghei
# Experiment: Antimalarial activity against Plasmodium berghei infected in mouse assessed as increase in mean survival days of host at 20 mg/kg, sc administered 72 hrs after infection relative to control
# Assay type: functional
# Conditions: route subcutaneous
row,Structure (SMILES),MST [days]
1,Nc1nc(N)c2cc(Sc3ccc(O)cc3)ccc2n1,6.3
2,Nc1nc(N)c2cc(Sc3cccc4ccccc34)ccc2n1,10.7
3,CC(C)(C)c1ccc(Sc2ccc3nc(N)nc(N)c3c2)cc1,1

# System: Plasmodium berghei
# Experiment: Antimalarial activity against Plasmodium berghei infected in mouse assessed as increase in mean survival days of host at 10 mg/kg, sc administered 72 hrs after infection relative to control
# Assay type: functional
# Conditions: route subcutaneous
row,Structure (SMILES),MST [days]
1,Nc1nc(N)c2cc(Sc3ccc(O)cc3)ccc2n1,2.9
2,Nc1nc(N)c2cc(Sc3cccc4ccccc34)ccc2n1,7.9
3,CC(C)(C)c1ccc(Sc2ccc3nc(N)nc(N)c3c2)cc1,1.1

# System: Plasmodium berghei
# Experiment: Antimalarial activity against Plasmodium berghei infected in mouse assessed as increase in mean survival days of host at 5 mg/kg, sc administered 72 hrs after infection relative to control
# Assay type: functional
# Conditions: route subcutaneous
row,Structure (SMILES),MST [days]
1,Nc1nc(N)c2cc(Sc3cccc4ccccc34)ccc2n1,1.9

# System: Plasmodium berghei
# Experiment: Antimalarial activity against Plasmodium berghei infected in mouse assessed as increase in mean survival days of host at 2.5 mg/kg, sc administered 72 hrs after infection relative to control
# Assay type: functional
# Conditions: route subcutaneous
row,Structure (SMILES),MST [days]
1,Nc1nc(N)c2cc(Sc3cccc4ccccc34)ccc2n1,1.1

# System: Plasmodium berghei
# Experiment: Antimalarial activity against Plasmodium berghei infected in mouse assessed as increase in mean survival days of host at 1.25 mg/kg, sc administered 72 hrs after infection relative to control
# Assay type: functional
# Conditions: route subcutaneous
row,Structure (SMILES),MST [days]
1,Nc1nc(N)c2cc(Sc3cccc4ccccc34)ccc2n1,0.5

# System: Plasmodium berghei
# Experiment: Antimalarial activity against Plasmodium berghei infected in mouse assessed as disease cure from parasite infection at 640 mg/kg, sc administered 72 hrs after infection
# Assay type: functional, organism-based
# Design: dose 640 mg/kg
# Conditions: not given
row,Structure (SMILES),Activity
1,Nc1nc(N)c2cc(Sc3ccc(O)cc3)ccc2n1,Active
2,Nc1nc(N)c2cc(Sc3cccc4ccccc34)ccc2n1,Active
3,CC(C)(C)c1ccc(Sc2ccc3nc(N)nc(N)c3c2)cc1,Active

# System: Plasmodium berghei
# Experiment: Antimalarial activity against Plasmodium berghei infected in mouse assessed as disease cure from parasite infection at 320 mg/kg, sc administered 72 hrs after infection
# Assay type: functional, organism-based
# Design: dose 320 mg/kg
# Conditions: not given
row,Structure (SMILES),Activity
1,Nc1nc(N)c2cc(Sc3ccc(O)cc3)ccc2n1,Active
2,Nc1nc(N)c2cc(Sc3cccc4ccccc34)ccc2n1,Active
3,CC(C)(C)c1ccc(Sc2ccc3nc(N)nc(N)c3c2)cc1,Active

# System: Plasmodium berghei
# Experiment: Antimalarial activity against Plasmodium berghei infected in mouse assessed as disease cure from parasite infection at 160 mg/kg, sc administered 72 hrs after infection
# Assay type: functional, organism-based
# Design: dose 160 mg/kg
# Conditions: not given
row,Structure (SMILES),Activity
1,Nc1nc(N)c2cc(Sc3ccc(O)cc3)ccc2n1,Active
2,Nc1nc(N)c2cc(Sc3cccc4ccccc34)ccc2n1,Active

# System: Plasmodium berghei
# Experiment: Antimalarial activity against Plasmodium berghei infected in mouse assessed as disease cure from parasite infection at 80 mg/kg, sc administered 72 hrs after infection
# Assay type: functional, organism-based
# Design: dose 80 mg/kg
# Conditions: not given
row,Structure (SMILES),Activity
1,Nc1nc(N)c2cc(Sc3ccc(O)cc3)ccc2n1,Active
2,Nc1nc(N)c2cc(Sc3cccc4ccccc34)ccc2n1,Active

# System: Plasmodium berghei
# Experiment: Antimalarial activity against trophozoite-induced Plasmodium berghei infected in mouse assessed as daily dose required to suppression of 90% parasite infection administered with diet for 6 days
# Assay type: functional
# Conditions: not given
row,Structure (SMILES),SD90 [mg/kg/day]
1,CC(C)(C)c1ccc(Sc2ccc3nc(N)nc(N)c3c2)cc1,18

# System: Plasmodium berghei
# Experiment: Ratio of quinine hydrochloride SD90 to compound SD90 for trophozoite-induced Plasmodium berghei infected in mouse assessed as daily dose required to suppression of 90% parasite infection administered with diet for 6 days
# Assay type: functional
# Conditions: not given
row,Structure (SMILES),Ratio
1,CC(C)(C)c1ccc(Sc2ccc3nc(N)nc(N)c3c2)cc1,4.1

# System: Plasmodium gallinaceum
# Experiment: Antimalarial activity against trophozoite-induced Plasmodium gallinaceum infected in white leghorn chicken assessed as increase in mean survival days of host at 20 mg/kg, sc administered 72 hrs after infection relative to control
# Assay type: functional
# Conditions: route subcutaneous
row,Structure (SMILES),MST [days]
1,Nc1nc(N)c2cc(Sc3cccc4ccccc34)ccc2n1,17.4

# System: Plasmodium gallinaceum
# Experiment: Antimalarial activity against trophozoite-induced Plasmodium gallinaceum infected in white leghorn chicken assessed as increase in mean survival days of host at 10 mg/kg, sc administered 72 hrs after infection relative to control
# Assay type: functional
# Conditions: route subcutaneous
row,Structure (SMILES),MST [days]
1,Nc1nc(N)c2cc(Sc3cccc4ccccc34)ccc2n1,12.4

# System: Plasmodium gallinaceum
# Experiment: Antimalarial activity against trophozoite-induced Plasmodium gallinaceum infected in white leghorn chicken assessed as increase in mean survival days of host at 5 mg/kg, sc administered 72 hrs after infection relative to control
# Assay type: functional
# Conditions: route subcutaneous
row,Structure (SMILES),MST [days]
1,Nc1nc(N)c2cc(Sc3cccc4ccccc34)ccc2n1,11.8

# System: Plasmodium gallinaceum
# Experiment: Antimalarial activity against trophozoite-induced Plasmodium gallinaceum infected in white leghorn chicken assessed as increase in mean survival days of host at 2.5 mg/kg, sc administered 72 hrs after infection relative to control
# Assay type: functional
# Conditions: route subcutaneous
row,Structure (SMILES),MST [days]
1,Nc1nc(N)c2cc(Sc3cccc4ccccc34)ccc2n1,9

# System: Plasmodium gallinaceum
# Experiment: Antimalarial activity against trophozoite-induced Plasmodium gallinaceum infected in white leghorn chicken assessed as increase in mean survival days of host at 1.25 mg/kg, sc administered 72 hrs after infection relative to control
# Assay type: functional
# Conditions: route subcutaneous
row,Structure (SMILES),MST [days]
1,Nc1nc(N)c2cc(Sc3cccc4ccccc34)ccc2n1,7.2

# System: Plasmodium gallinaceum
# Experiment: Antimalarial activity against trophozoite-induced Plasmodium gallinaceum infected in white leghorn chicken assessed as increase in mean survival days of host at 0.63 mg/kg, sc administered 72 hrs after infection relative to control
# Assay type: functional
# Conditions: route subcutaneous
row,Structure (SMILES),MST [days]
1,Nc1nc(N)c2cc(Sc3cccc4ccccc34)ccc2n1,2.2
